# Data from ChEMBL document CHEMBL5537143, “Synthesis and antimicrobial properties of guanidine-functionalized labdane type diterpenoids” (Eur J Med Chem, 2024).
# Tests used:
# [1] = Acute toxicity in zebrafish embryo assessed as mortality rate at 8 microg/ml preincubated with compound for 24 hrs and measured after 48 to 72 hrs post fertilization; set-up: species or system Danio rerio; details: in vivo, at 8 µg/mL
# [2] = Acute toxicity in zebrafish embryo assessed as mortality rate at 0.7 microg/ml preincubated with compound for 24 hrs and measured after 48 to 72 hrs post fertilization; set-up: species or system Danio rerio; details: in vivo, at 0.7 µg/mL
# Candida albicans [3] = test: Synergistic antifungal activity against Candida albicans ATCC 10231 assessed as Voriconazole MIC incubated for 48 hrs by CLSI based analysis; assay type: functional; details: read-out: MIC100
# Staphylococcus aureus [4] = test: Antimicrobial activity against Staphylococcus aureus ATCC 43300 assessed as inhibition of microbial growth incubated for 24 hrs by broth-microdilution assay; assay type: functional; details: for MIC: Staphylococcus aureus, ATCC 43300, read-out: MIC100
# Pseudomonas aeruginosa [5] = test: Antimicrobial activity against Pseudomonas aeruginosa PAO1 assessed as inhibition of microbial growth at 128 microg/ml incubated for 24 hrs by broth-microdilution assay relative to control; assay type: functional
# [6] = Acute toxicity in zebrafish embryo assessed as mortality rate at 16 microg/ml preincubated with compound for 24 hrs and measured after 24 hrs post fertilization; set-up: species or system Danio rerio; details: in vivo, at 16 µg/mL
# Klebsiella pneumoniae [7] = test: Antimicrobial activity against Carbapenem-resistant Klebsiella pneumoniae ATCC BAA1705 assessed as inhibition of microbial growth incubated for 24 hrs by broth-microdilution assay; assay type: functional
# Staphylococcus aureus [8] = test: Antimicrobial activity against methicillin resistant Staphylococcus aureus 43300 assessed as inhibition of microbial growth incubated for 24 hrs by broth-microdilution assay; assay type: functional; details: read-out: MIC
# Candida albicans [9] = test: Antifungal activity against Candida albicans ATCC 90028 assessed as reduction in fungal growth incubated for 48 hrs by CLSI based analysis; assay type: functional
# Klebsiella pneumoniae [10] = test: Antimicrobial activity against Klebsiella pneumoniae ATCC 13883 assessed as inhibition of microbial growth incubated for 24 hrs by broth-microdilution assay; assay type: functional
# Klebsiella pneumoniae [11] = test: Synergistic antimicrobial activity against Klebsiella pneumoniae ATCC BAA1705 assessed as Imipenem MIC incubated for 24 hrs by checkerboard assay; assay type: functional; details: read-out: MIC100
# Staphylococcus aureus [12] = test: Antimicrobial activity against Staphylococcus aureus ATCC 29213 assessed as inhibition of microbial growth incubated for 24 hrs by broth-microdilution assay; assay type: functional; details: for MIC: Staphylococcus aureus, ATCC 29213, read-out: MIC100
# [13] = Acute toxicity in zebrafish embryo assessed as mortality rate at 2 microg/ml preincubated with compound for 24 hrs and measured after 48 to 72 hrs post fertilization; set-up: species or system Danio rerio; details: in vivo, at 2 µg/mL
# Klebsiella pneumoniae [14] = test: Synergistic antimicrobial activity against Klebsiella pneumoniae ATCC BAA1705 assessed as fractional inhibitory concentration index incubated for 24 hrs in presence of Imipenem by checkerboard assay; assay type: functional
# Staphylococcus aureus [15] = test: Synergistic antimicrobial activity against methicillin resistant Staphylococcus aureus 43300 assessed as fractional inhibitory concentration index incubated for 24 hrs in presence of Oxacillin by checkerboard assay; assay type: functional
# [16] = test system: Staphylococcus epidermidis; test: Antimicrobial activity against Staphylococcus epidermidis ATCC 35984 assessed as inhibition of microbial growth incubated for 24 hrs by broth-microdilution assay; assay type: functional; details: for MIC: Staphylococcus epidermidis
# [17] = Acute toxicity in zebrafish embryo preincubated with compound for 24 hrs and measured after 48 to 96 hrs post fertilization; set-up: species or system Danio rerio; details: in vivo
# Candida albicans [18] = test: Synergistic antifungal activity against Candida albicans ATCC 10231 assessed as reduction in fungal growth incubated for 48 hrs in presence of Voriconazole by CLSI based analysis; assay type: functional; details: read-out: MIC100
# [19] = test system: Staphylococcus epidermidis; test: Antimicrobial activity against Staphylococcus epidermidis ATCC 12228 assessed as inhibition of microbial growth incubated for 24 hrs by broth-microdilution assay; assay type: functional; details: for MIC: Staphylococcus epidermidis
# Klebsiella pneumoniae [20] = test: Antimicrobial activity against Carbapenem -resistant Klebsiella pneumoniae ATCC 13883 assessed as inhibition of microbial growth incubated for 24 hrs by broth-microdilution assay; assay type: functional
# Pseudomonas aeruginosa [21] = test: Antimicrobial activity against Pseudomonas aeruginosa ATCC 27853 assessed as inhibition of microbial growth incubated for 24 hrs by broth-microdilution assay; assay type: functional; details: Pseudomonas aeruginosa; for MIC: ATCC 27853, read-out: MIC100
# Pseudomonas aeruginosa [22] = test: Antimicrobial activity against Pseudomonas aeruginosa 27853 assessed as inhibition of microbial growth at 128 microg/ml incubated for 24 hrs by broth-microdilution assay relative to control; assay type: functional
# Staphylococcus aureus [23] = test: Synergistic antimicrobial activity against methicillin resistant Staphylococcus aureus 43300 assessed as Oxacillin MIC incubated for 24 hrs by checkerboard assay; assay type: functional; details: read-out: MIC100
# Staphylococcus aureus [24] = test: Synergistic antimicrobial activity against methicillin resistant Staphylococcus aureus 43300 assessed as inhibition of microbial growth incubated for 24 hrs in presence of Oxacillin by checkerboard assay; assay type: functional; details: read-out: MIC100
# Klebsiella pneumoniae [25] = test: Synergistic antimicrobial activity against Klebsiella pneumoniae ATCC BAA1705 assessed as inhibition of microbial growth incubated for 24 hrs in presence of Imipenem by checkerboard assay; assay type: functional; details: read-out: MIC100
# Klebsiella pneumoniae [26] = test: Antimicrobial activity against Klebsiella pneumoniae ATCC BAA1705 assessed as inhibition of microbial growth incubated for 24 hrs by broth-microdilution assay; assay type: functional
# [27] = Acute toxicity in zebrafish embryo assessed as mortality rate at 4 microg/ml preincubated with compound for 24 hrs and measured after 48 to 72 hrs post fertilization; set-up: species or system Danio rerio; details: in vivo, at 4 µg/mL
# Pseudomonas aeruginosa [28] = test: Antimicrobial activity against Pseudomonas aeruginosa PAO1 assessed as inhibition of microbial growth incubated for 24 hrs by broth-microdilution assay; assay type: functional; details: for MIC: Pseudomonas aeruginosa, PAO1, read-out: MIC100
# [29] = Acute toxicity in zebrafish embryo assessed as mortality rate at 16 microg/ml preincubated with compound for 24 hrs and measured after 48 to 72 hrs post fertilization; set-up: species or system Danio rerio; details: in vivo, at 16 µg/mL
# Candida albicans [30] = test: Antifungal activity against Candida albicans ATCC 10231 assessed as reduction in fungal growth incubated for 48 hrs by CLSI based analysis; assay type: functional; details: read-out: MIC100
# [31] = Acute toxicity in zebrafish embryo assessed as mortality rate at 32 microg/ml preincubated with compound for 24 hrs and measured after 48 to 72 hrs post fertilization; set-up: species or system Danio rerio; details: in vivo, at 32 µg/mL
# [32] = Acute toxicity in zebrafish embryo assessed as mortality rate at 32 microg/ml preincubated with compound for 24 hrs and measured after 24 hrs post fertilization; set-up: species or system Danio rerio; details: in vivo, at 32 µg/mL
# [33] = Acute toxicity in zebrafish embryo preincubated with compound for 24 hrs and measured after 24 hrs post fertilization; set-up: species or system Danio rerio; details: in vivo
# Candida albicans [34] = test: Synergistic antifungal activity against Candida albicans ATCC 10231 assessed as fractional inhibitory concentration index incubated for 48 hrs in presence of Voriconazole by CLSI based analysis; assay type: functional
# Staphylococcus aureus [35] = test: Antimicrobial activity against Staphylococcus aureus 29213 assessed as inhibition of microbial growth incubated for 24 hrs by broth-microdilution assay; assay type: functional
smiles,measurement,setting,value
CC1(C)CCC[C@]2(C)[C@H]3CC[C@@](C)(CC(=O)NC(=N)N)O[C@]3(C)CC[C@@H]12,"mortality at 24 h, 8 microg/ml",[1],0%
same,"mortality at 24 h, 0.7 microg/ml",[2],5%
same,MIC,Candida albicans [3],0.125 µg/mL
same,MIC,Staphylococcus aureus [4],8 µg/mL
same,inhibition at 128 µg/mL,Pseudomonas aeruginosa [5],65%
same,"mortality at 24 h, 16 microg/ml",[6],10%
same,MIC,Klebsiella pneumoniae [7],32 µg/mL
same,MIC,Staphylococcus aureus [8],4 µg/mL
same,MIC,Candida albicans [9]; read-out: MIC,16 µg/mL
same,MIC,Klebsiella pneumoniae [10]; read-out: MIC,16 µg/mL
same,MIC,Klebsiella pneumoniae [11],2 µg/mL
same,MIC,Staphylococcus aureus [12],8 µg/mL
same,mortality at 2 microg/ml,[13],0%
same,fractional inhibitory concentration index (FICI),Klebsiella pneumoniae [14],0.6
same,fractional inhibitory concentration index (FICI),Staphylococcus aureus [15],0.55
same,MIC,"[16]; ATCC 35984, read-out: MIC",4 µg/mL
same,LC50,[17],11.5 µg/mL
same,MIC,Candida albicans [18],2 µg/mL
same,MIC,"[19]; ATCC 12228, read-out: MIC",4 µg/mL
same,MIC,Klebsiella pneumoniae [20],32 µg/mL
same,MIC50,Pseudomonas aeruginosa [21]; ATCC 27853,128 µg/mL
same,inhibition at 128 µg/mL,Pseudomonas aeruginosa [22],50%
same,MIC,Staphylococcus aureus [23],0.5 µg/mL
same,MIC,Staphylococcus aureus [24],2 µg/mL
same,MIC,Klebsiella pneumoniae [25],16 µg/mL
same,MIC,Klebsiella pneumoniae [26]; read-out: MIC,32 µg/mL
same,mortality at 4 microg/ml,[27],0%
same,MIC65,Pseudomonas aeruginosa [28],128 µg/mL
same,mortality at 16 microg/ml,[29],100%
same,MIC,Candida albicans [30],16 µg/mL
same,"mortality at 24 h, 32 microg/ml",[31],100%
same,"mortality at 24 h, 32 microg/ml",[32],5%
same,LC50 at 24 h,[33],93.4 µg/mL
same,fractional inhibitory concentration index (FICI),Candida albicans [34],0.129
same,MIC,Staphylococcus aureus [35],4 µg/mL
CC1(C)CCC[C@]2(C)[C@H]3CC[C@](C)(CC(=O)O)O[C@]3(C)CC[C@@H]12,MIC70,Staphylococcus aureus [4],64 µg/mL
same,MIC,Candida albicans [9]; read-out: MIC100,> 128 µg/mL
same,MIC,Klebsiella pneumoniae [10]; read-out: MIC100,> 128 µg/mL
same,MIC70,Staphylococcus aureus [12],64 µg/mL
same,MIC70,[16],64 µg/mL
same,MIC70,[19],64 µg/mL
same,MIC,Pseudomonas aeruginosa [21],> 128 µg/mL
same,MIC,Klebsiella pneumoniae [26]; read-out: MIC100,> 128 µg/mL
same,MIC,Pseudomonas aeruginosa [28],> 128 µg/mL
same,MIC,Candida albicans [30],> 128 µg/mL
CC1(C)CCC[C@]2(C)[C@H]3CC[C@@](C)(CC(=O)O)O[C@]3(C)CC[C@@H]12,MIC,Staphylococcus aureus [4],> 128 µg/mL
same,MIC,Candida albicans [9]; read-out: MIC100,> 128 µg/mL
same,MIC,Klebsiella pneumoniae [10]; read-out: MIC100,> 128 µg/mL
same,MIC,Staphylococcus aureus [12],> 128 µg/mL
same,MIC,"[16]; ATCC 35984, read-out: MIC100",128 µg/mL
same,MIC,"[19]; ATCC 12228, read-out: MIC100",128 µg/mL
same,MIC,Pseudomonas aeruginosa [21],> 128 µg/mL
same,MIC,Klebsiella pneumoniae [26]; read-out: MIC100,> 128 µg/mL
same,MIC,Pseudomonas aeruginosa [28],> 128 µg/mL
same,MIC,Candida albicans [30],> 128 µg/mL
